Laboratory results from patent US11608341B2, “Substituted tetrahydropyrazolo[3,4-d]pyrimidines and tetrahydropyrazolo[4,3-d]pyrimidines as C5A receptor modulators” (Idorsia Pharmaceuticals Ltd., priority 2018, dated 2023).

Biological target: T1, C5AR1 (Homo sapiens, UniProt P21730)
T1 construct: host or cells: CHO-K1
T1 sequence (P21730 1-350): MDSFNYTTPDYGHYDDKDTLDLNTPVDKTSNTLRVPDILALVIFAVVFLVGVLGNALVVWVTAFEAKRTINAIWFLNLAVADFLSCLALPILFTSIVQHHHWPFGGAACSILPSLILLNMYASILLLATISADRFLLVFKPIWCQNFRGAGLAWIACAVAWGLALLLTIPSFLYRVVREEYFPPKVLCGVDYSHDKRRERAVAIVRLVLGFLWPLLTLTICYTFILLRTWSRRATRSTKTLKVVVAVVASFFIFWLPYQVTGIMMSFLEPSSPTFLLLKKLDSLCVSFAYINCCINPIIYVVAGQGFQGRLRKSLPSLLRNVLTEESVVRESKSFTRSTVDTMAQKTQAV
Test: In vitro assay: antagonism of C5a-induced beta-arrestin recruitment (PathHunter) in CHO-K1 C5AR1 beta-arrestin cell line
Assay type: cell-based
Conditions: antagonistic activity, 1-10 nM C5a agonist, geometric mean where several measurements, read-out: C5aR IC50
Outline: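 Antagonist or DMSO added first, then C5a (1-10 nM, added at 6-fold end concentration), 1.5 h at 37 °C. PathHunter detection reagent was added for 45 min at RT before plate reading. IC50s come from antagonist serial dilutions in nmol/l and are geometric means of several measurements.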

| SMILES | IC50 |
| --- | --- |
| COc1nccc(C)c1N1CCC(N2C(=O)N(Cc3ccccc3C3CC3)c3c[nH]nc3C2C)CC1 (single isomer, unassigned) [Example 274] | 37 nM |
| Cc1cccc(F)c1N1CCC(N2C(=O)N(Cc3ccccc3C(F)(F)F)c3cn(C)nc3C2C)CC1 (single isomer, unassigned) [Example 203] | 74 nM |
| Cc1cccc(F)c1N1CCC(N2Cc3cn(C4CN(c5nnc(C(F)(F)F)o5)C4)nc3N(Cc3ccccc3C(F)(F)F)C2=O)CC1 [Example 144] | 14 nM |
